The results in this text go back to patent US10329302B2, “Bicyclic-fused heteroaryl or aryl compounds” (Pfizer Inc., priority 2014, dated 2019).

Sequence of human IRAK4 kinase domain (aa 154-460) (Q9NWZ3 154-460): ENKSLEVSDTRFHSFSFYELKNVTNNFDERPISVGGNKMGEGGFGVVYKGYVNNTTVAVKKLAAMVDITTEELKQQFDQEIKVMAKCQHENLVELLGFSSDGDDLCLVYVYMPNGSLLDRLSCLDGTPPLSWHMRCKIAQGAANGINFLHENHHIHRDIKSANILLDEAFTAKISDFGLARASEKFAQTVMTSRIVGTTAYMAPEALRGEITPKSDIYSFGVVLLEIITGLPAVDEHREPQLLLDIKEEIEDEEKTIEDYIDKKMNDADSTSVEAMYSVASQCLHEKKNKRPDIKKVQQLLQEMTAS

The first test concerns the target human IRAK4 kinase domain (aa 154-460) (Homo sapiens (Human), UniProt Q9NWZ3). Briefly: IRAK4 Enzymatic DELFIA Assay, Protocol B.
Conditions: not given
The class given is biochemical. The source says: IRAK4 Enzymatic DELFIA Assay, Protocol B.
Take `CC(C)Oc1cc2c(OC3CC[C@@H]4CN(C(=O)CC#N)C[C@H]34)ccnc2cc1C(N)=O` (single isomer, unassigned) [Example 71]: half-maximal inhibition (IC50) required 153 nM.

The test is the same for the next values; noted with them: human IRAK4 kinase domain (aa 154-460), 0.6 mM ATP (KM); read-out: IRAK4 DELFIA Protocol B IC50.
Take `CC(C)Oc1cc2c(OCC3(C)CCN(C(=O)CC#N)CC3)nccc2cc1C(N)=O` [Example 86, 1-{[1-(cyanoacetyl)-4-methylpiperidin-4-yl]methoxy}-7-(propan-2-yloxy)isoquinoline-6-carboxamide]: the half-maximal inhibitory concentration (IC50) (in general, the midpoint of a concentration-inhibition curve) is 216 nM. The same measure, in the same setting: under `CC(C)Oc1cc2c(OCC3(C)CCN(C(=O)CC#N)C3)nccc2cc1C(N)=O` (centres unmarked) [Example 82, 1-{[1-(cyanoacetyl)-3-methylpyrrolidin-3-yl]methoxy}-7-(propan-2-yloxy)isoquinoline-6-carboxamide] stands 969 nM; under `CC(C)Oc1cc2c(OC[C@@H]3CN(C(=O)CC#N)CCO3)ccnc2cc1C(N)=O` [Example 98, 4-{[(2S)-4-(cyanoacetyl)morpholin-2-yl]methoxy}-6-(propan-2-yloxy)quinoline-7-carboxamide], 575 nM. On the same count and under the same terms, under `CC(C)Oc1cc2c(OC[C@H]3CNC[C@@H]3C(F)(F)F)nccc2cc1C(N)=O` [Example 46, 7-(propan-2-yloxy)-1-{[(3R,4R)-4-(trifluoromethyl)pyrrolidin-3-yl]methoxy}isoquinoline-6-carboxamide] stands 237 nM; under `CC(C)Oc1cc2c(O[C@H]3C[C@@H]4C[C@H]3CN4C(=O)CC#N)nccc2cc1C(N)=O` [Example 74, 1-{[(1S,4S,5S)-2-(cyanoacetyl)-2-azabicyclo[2.2.1]hept-5-yl]oxy}-7-(propan-2-yloxy)isoquinoline-6-carboxamide], 43 nM. On the same count and under the same terms, as for `CC(C)Oc1cc2c(O[C@H]3C[C@@H]4C[C@H]3CN(C(=O)CC#N)C4)nccc2cc1C(N)=O` [Example 81, 1-{[(1S,5S,6S)-3-(cyanoacetyl)-3-azabicyclo[3.2.1]oct-6-yl]oxy}-7-(propan-2-yloxy)isoquinoline-6-carboxamide], the figure is 479 nM; as for `CC(C)Oc1cc2c(OC3C[C@@H]4CN[C@H]3C4)nccc2cc1C(N)=O` (stereo partly drawn) [Example 72, 1-[(1S,4R)-2-azabicyclo[2.2.1]hept-6-yloxy]-7-(propan-2-yloxy)isoquinoline-6-carboxamide], 2620 nM. On to `CC(C)Oc1cc2c(OC[C@@H]3CC(C)C(=O)N3)nccc2cc1C(N)=O` (stereo partly drawn) [Example 107, 1-{[(2S)-4-methyl-5-oxopyrrolidin-2-yl]methoxy}-7-(propan-2-yloxy)isoquinoline-6-carboxamide], for which the IC50 was 16 nM. As for `CC(C)Oc1cc2c(OCC3COCO3)ccnc2cc1C(N)=O` (centres unmarked) [Example 18, 4-(1,3-dioxolan-4-ylmethoxy)-6-(propan-2-yloxy)quinoline-7-carboxamide], the IC50 was found to be 507 nM.

With `CC(C)Oc1cc2c(OC3CC[C@@H]4CNC[C@H]34)ccnc2cc1C(N)=O` (stereo partly drawn) [Example 21, 4-[(3aR,6aS)-octahydrocyclopenta[c]pyrrol-4-yloxy]-6-(propan-2-yloxy)quinoline-7-carboxamide], the 50% inhibitory concentration (IC50) is 83 nM. The same measure, in the same setting: as for `CC(C)Oc1cc2c(O[C@@H]3CC4CC[C@H]3C4)ccnc2cc1C(N)=O` [Example 19, 4-[(1S,2R)-bicyclo[2.2.1]hept-2-yloxy]-6-(propan-2-yloxy)quinoline-7-carboxamide], the figure is 354 nM. Regarding `CC(C)Oc1cc2c(OCC3CCCNC3)ccnc2cc1C(N)=O` (centres unmarked) [Example 59, 4-(piperidin-3-ylmethoxy)-6-(propan-2-yloxy)quinoline-7-carboxamide], the 50% inhibitory concentration (IC50) turned out to be 243 nM. Still for that read-out and setting: under `CC(C)Oc1cc2c(OC[C@H]3CN(C(=O)CC#N)C[C@@H]3C)ccnc2cc1C(N)=O` [Example 88, 4-{[(3R,4R)-1-(cyanoacetyl)-4-methylpyrrolidin-3-yl]methoxy}-6-(propan-2-yloxy)quinoline-7-carboxamide] stands 292 nM; under `CC(C)Oc1cc2c(OCC3CNCCO3)nccc2cc1C(N)=O` (centres unmarked) [Example 39, 1-(morpholin-2-ylmethoxy)-7-(propan-2-yloxy)isoquinoline-6-carboxamide], 386 nM. On the same count and under the same terms, under `CC(C)Oc1cc2c(OC[C@H]3[C@@H]4CNC[C@@H]43)ccnc2cc1C(N)=O` [Example 5, 4-[(1R,5S,6r)-3-azabicyclo[3.1.0]hex-6-ylmethoxy]-6-(propan-2-yloxy)quinoline-7-carboxamide] stands 323 nM; under `CC(C)Oc1cc2c(OC[C@]34CNCC[C@H]3C4)nccc2cc1C(N)=O` [Example 162, 1-[(1S,6R)-3-azabicyclo[4.1.0]hept-1-ylmethoxy]-7-(propan-2-yloxy)isoquinoline-6-carboxamide], 35 nM; under `CO[C@H]1CN(C(=O)CC#N)C[C@@H]1COc1ccnc2cc(C(N)=O)c(OC(C)C)cc12` [Example 96, 4-{[(3R,4R)-1-(cyanoacetyl)-4-methoxypyrrolidin-3-yl]methoxy}-6-(propan-2-yloxy)quinoline-7-carboxamide], 301 nM. The same measure, in the same setting: under `CC(C)Oc1cc2c(OC[C@@H]3CCNC3)cccc2cc1C(N)=O` [Example 115, 3-(propan-2-yloxy)-5-[(3R)-pyrrolidin-3-ylmethoxy]naphthalene-2-carboxamide] stands 61 nM; under `CC(C)Oc1cc2c(OCC3CCCCO3)nccc2cc1C(N)=O` (centres unmarked) [Example 25, 7-(propan-2-yloxy)-1-(tetrahydro-2H-pyran-2-ylmethoxy)isoquinoline-6-carboxamide], 1130 nM. For `CC(C)Oc1cc2c(OCC3(F)CCN(C(=O)CC#N)CC3)ccnc2cc1C(N)=O` [Example 95, 4-{[1-(cyanoacetyl)-4-fluoropiperidin-4-yl]methoxy}-6-(propan-2-yloxy)quinoline-7-carboxamide], the IC50 was determined as 3170 nM.

Regarding `CC(C)Oc1cc2c(OCC3CCCC3)ccnc2cc1C(N)=O` [Example 7, 4-(cyclopentylmethoxy)-6-(propan-2-yloxy)quinoline-7-carboxamide], the concentration for half-maximal inhibition (IC50) was 170 nM. In the case of `CC(C)Oc1cc2c(OC[C@H]3CCCO3)nccc2cc1C(N)=O` [Example 30, 7-(propan-2-yloxy)-1-[(2R)-tetrahydrofuran-2-ylmethoxy]isoquinoline-6-carboxamide], the concentration for half-maximal inhibition (IC50) was 2440 nM.

`CC(C)Oc1cc2c(OCC3CCCN3)nccc2cc1C(N)=O` (centres unmarked) [Example 159, 7-(propan-2-yloxy)-1-(pyrrolidin-2-ylmethoxy)isoquinoline-6-carboxamide]: the concentration for half-maximal inhibition (IC50) turned out to be 3380 nM. Same read-out and setting: as for `CC(C)Oc1cc2c(OC[C@@H]3CCCN(C(=O)CC#N)C3)ccnc2cc1C(N)=O` [Example 97, 4-{[(3R)-1-(cyanoacetyl)piperidin-3-yl]methoxy}-6-(propan-2-yloxy)quinoline-7-carboxamide], the figure is 2740 nM. `CC(C)Oc1cc2c(OC[C@H]3COCCN3)nccc2cc1C(N)=O` [Example 158, 1-[(3R)-morpholin-3-ylmethoxy]-7-(propan-2-yloxy)isoquinoline-6-carboxamide]: the IC50 turned out to be 1440 nM.

For `CC(C)Oc1cc2c(OC3CC[C@@H]4CNC[C@H]34)nccc2cc1C(N)=O` (stereo partly drawn) [Example 20, 1-[(3aR,6aS)-octahydrocyclopenta[c]pyrrol-4-yloxy]-7-(propan-2-yloxy)isoquinoline-6-carboxamide], the IC50 came to 102 nM. Still for that read-out and setting: as for `CC(C)Oc1cc2c(OC[C@H]3[C@@H]4CNC[C@@H]43)nccc2cc1C(N)=O` [Example 42, 1-[(1R,5S,6r)-3-azabicyclo[3.1.0]hex-6-ylmethoxy]-7-(propan-2-yloxy)isoquinoline-6-carboxamide], the figure is 219 nM; as for `CC(C)Oc1cc2c(OCC3CCNCC3)ccnc2cc1C(N)=O` [Example 4, 4-(piperidin-4-ylmethoxy)-6-(propan-2-yloxy)quinoline-7-carboxamide], 913 nM; as for `CC(C)Oc1cc2c(OC[C@H]3CN(C(=O)CC#N)C[C@@H]3C)nccc2cc1C(N)=O` [Example 85, 1-{[(3R,4R)-1-(cyanoacetyl)-4-methylpyrrolidin-3-yl]methoxy}-7-(propan-2-yloxy)isoquinoline-6-carboxamide], 610 nM. Turning to `CC(C)Oc1cc2c(OCC3(C)CCNCC3)ccnc2cc1C(N)=O` [Example 56, 4-[(4-methylpiperidin-4-yl)methoxy]-6-(propan-2-yloxy)quinoline-7-carboxamide], the 50% inhibitory concentration (IC50) is 1490 nM. Regarding `CC(C)Oc1cc2c(OCC3CNC(=O)O3)nccc2cc1C(N)=O` (centres unmarked) [Example 35, 1-[(2-oxo-1,3-oxazolidin-5-yl)methoxy]-7-(propan-2-yloxy)isoquinoline-6-carboxamide], the IC50 was 16 nM.

For the molecule `CC(C)Oc1cc2c(OC[C@@H]3CNCCO3)nccc2cc1C(N)=O` [Example 37, 1-[(2S)-morpholin-2-ylmethoxy]-7-(propan-2-yloxy)isoquinoline-6-carboxamide], the IC50 came to 3520 nM.

For `CC(C)Oc1cc2c(OC[C@H]3NC(=O)[C@@H]4OC(C)(C)O[C@H]34)nccc2cc1C(N)=O` [Example 167, 1-{[(3aR,4R,6aR)-2,2-dimethyl-6-oxotetrahydro-3aH-[1,3]dioxolo[4,5-c]pyrrol-4-yl]methoxy}-7-(propan-2-yloxy)isoquinoline-6-carboxamide], the 50% inhibitory concentration (IC50) was determined as 19 nM. Still for that read-out and setting: as for `CC(C)Oc1cc2c(OC[C@@H]3NC(=O)CC3(C)C)nccc2cc1C(N)=O` [Example 223, 1-{[(2R)-3,3-dimethyl-5-oxopyrrolidin-2-yl]methoxy}-7-(propan-2-yloxy)isoquinoline-6-carboxamide], the figure is 15 nM; as for `CC(C)Oc1cc2c(OC[C@@]34CNCC[C@@H]3C4)nccc2cc1C(N)=O` [Example 161, 1-[(1R,6S)-3-azabicyclo[4.1.0]hept-1-ylmethoxy]-7-(propan-2-yloxy)isoquinoline-6-carboxamide], 88 nM; as for `CC(C)Oc1cc2c(OCC3CCOC3)nccc2cc1C(N)=O` (centres unmarked) [Example 24, 7-(propan-2-yloxy)-1-(tetrahydrofuran-3-ylmethoxy)isoquinoline-6-carboxamide], 492 nM. The same measure, in the same setting: under `CC(C)Oc1cc2c(OC[C@H]3CCN(C(=O)CC#N)C3)ccnc2cc1C(N)=O` [Example 22, 4-{[(3S)-1-(cyanoacetyl)pyrrolidin-3-yl]methoxy}-6-(propan-2-yloxy)quinoline-7-carboxamide] stands 45 nM.
